According to patent US10507216B2, “Method for olfactory improvement with saccharide” (priority 2017, dated 2019):

What was measured:
[1] = test system: rat olfactory neuroepithelial cells (ONCs); assay: Western blot analysis of rat ONCs (βIII tubulin, OMP, Golf, ADCY3 relative to GAPDH); type: cell-based; conditions: day 9
Procedure: Olfactory neuroepithelia of rats were isolated from E17 embryos of wistar rats and 40 embryos per trial were used. After isolation, olfactory neuroepithelia were digested in Hanks' balanced salt solution (Roche Molecular Biochemicals, Indianapolis, Ind., USA) containing 0.125% Trypsin/EDTA for 30 minutes at 37° C. The cell suspension was then filtered through a 70 μm cell strainer to eliminate cell aggregates and debris, and adjusted to 24×10^4 cells/mL (equivalent to 5×10^4 cells/cm^2). Finally, a 2 mL cell suspension was added to six-wells coated with 0.85 μg/cm^2 poly-L-lysine (PLL). ONCs were cultured at 37° C. in a humidified 5% CO2 and 95% air atmosphere. Cell morphology was observed under an inverse phase contrast microscope (TS-100, Nikon, Tokyo, Japan) and scanning electron microscope (Hitachi S-4800).
ONC medium comprised DMEM/F12 (Invitrogen), 20 ng/mL bFGF, 20 ng/mL EGF, 2% B27 and 1% penicillin/streptomycin. To prepare the chitosan-containing medium for administration groups, chitosan (C-3646, Sigma, St. Louis, Mo.) was mixed with culture medium (0.1 mg/mL), and adjusted to pH 7.2 with NaOH. Particularly, chitosan solution was prepared by dissolving chitosan in 0.5 M acetic acid.
ONC lysates were obtained from individual culture wells using a RIPA lysis buffer containing protease inhibitor cocktail tablets (Roche Diagnostics GmbH). These samples were then denatured and separated by 12% SDS-PAGE gels, and blotted onto PVDF membranes (Millipore). After blocking in a CIS blocking buffer at room temperature for 60 seconds, the membranes were probed with various primary antibodies at 4° C. overnight. Membranes were incubated with horseradish peroxidase-conjugated secondary antibodies for 1.5 hours, and finally visualized using enhanced chemiluminescence (ECL; Millipore, Billerica, Mass.). After detachment of previous primary antibodies, the membranes were also probed with GAPDH antibodies, which served as an internal control. Images of western blotting were acquired by UVP BioSpectrum 810, and analyzed by Vision Works LS software (UVP, California, USA).
All the measurements were presented as mean±SD. Statistical significance was computed with one-way ANOVA followed by LSD test with p<0.05. All statistical analyses were conducted using Sigma plot v12.5.

[2] = test system: human olfactory neuroepithelial cells (ONCs); assay: Western blot analysis of human ONCs (OMP, Golf, βIII tubulin); type: cell-based; conditions: 0.1 mg/ml monosaccharide monomer, day 9
Procedure: Human olfactory neuroepithelia were harvested from adult olfactory neuroepithelium during endoscopic sinus surgery. Biopsy specimens were transferred into Hank's balanced salt solution (HBSS), minced finely, and then digested with 0.125% Trypsin/EDTA for 30 minutes at 37° C. After digestion, the pellet was collected by centrifuge and resuspended in the iscove's modified dulbecco's media (IMDM; Invitrogen, Calif., USA) with 10% fetal bovine serum and 1% penicillin/streptomycin Finally, they were seeded to six-wells coated with laminin-co-fibronectin for 21 days, incubated in a humidified atmosphere containing 5% CO2 and 95% air. After 21 days, the medium were changed with induction medium. This induction medium is Dulbecco's Modified Eagle Medium: Nutrient Mixture F-12 (DMEM/F12) (Invitrogen, Calif., USA) supplemented with 2% B-27 serum-free supplement. To prepare the chitosan-containing medium for administration groups, chitosan (C-3646, Sigma-Aldrich, St. Louis, Mo.) was mixed with induction medium (0.1 mg/ml), and adjusted to pH 7.2 with NaOH.
ONC lysates were obtained from individual culture wells using a RIPA lysis buffer containing protease inhibitor cocktail tablets (Roche Diagnostics GmbH). […] Images of western blotting were acquired by UVP BioSpectrum 810, and analyzed by Vision Works LS software (UVP, California, USA). […]

[3] = 0.1 mg/ml monosaccharide monomer

| Compound | expression levels of OMP and Golf [1, 3] | expression levels of OMP [2] | expression levels of OMP and Golf ([1]; 0.1 mg/ml proteoglycan or glycosaminoglycan) |
| --- | --- | --- | --- |
| CC(=O)N[C@H]1C(O)O[C@H](CO)[C@H](O)[C@@H]1O (stereo partly shown) [GalNAc, N-acetylgalactosamine] | promoted the maturation of ORNs | induced positive effects on human ONCs | – |
| N[C@H]1C(O)O[C@H](CO)[C@@H](O)[C@@H]1O (stereo partly shown) [GlcN, glucosamine] | promoted the maturation of ORNs | – | – |
| CC(=O)N[C@H]1C(O)O[C@H](CO)[C@@H](O)[C@@H]1O (stereo partly shown) [GlcNAc, N-acetylglucosamine] | promoted the maturation of ORNs | – | – |
| CC(=O)N[C@@H]1C(O)O[C@H](CO)[C@@H](O)[C@@H]1O (stereo partly drawn) [ManNAc, N-acetyl-D-mannosamine] | promoted the maturation of ORNs | induced positive effects on human ONCs | – |
| heparan sulfate proteoglycan [HSPG] | – | – | promoted expression of mature and functional ORNs |
